Assay: xn = mol fraction of the nth substance listed
Conditions: 101 kPa, Liquid, Vibrating tube method

COC(C)(C)C [2-methoxy-2-methylpropane] + CO
mass density [kg/m3]
Conditions	293.15 K	298.15 K	303.15 K	308.15 K
x1 = 0.01	790.62	785.93	781.19	776.42
x1 = 0.0201	789.69	785	780.24	775.46
x1 = 0.0301	788.74	784.01	779.26	774.46
x1 = 0.0402	787.83	783.09	778.32	773.51
x1 = 0.0502	786.96	782.24	777.44	772.61
x1 = 0.0601	786.1	781.36	776.57	771.73
x1 = 0.0696	785.32	780.58	775.75	770.9
x1 = 0.0799	784.47	779.71	774.88	770.02
x1 = 0.0888	783.72	778.95	774.12	769.25
x1 = 0.1008	782.79	778	773.16	768.27
x1 = 0.1498	779.11	774.25	769.36	764.43
x1 = 0.1945	776.01	771.13	766.21	761.24
x1 = 0.26	771.99	767.08	762.1	757.08
x1 = 0.3006	769.58	764.65	759.64	754.59
x1 = 0.3482	766.92	761.97	756.93	751.87
x1 = 0.3841	765.07	760.07	755.01	749.92
x1 = 0.4527	761.67	756.67	751.59	746.45
x1 = 0.5004	759.46	754.42	749.29	744.12
x1 = 0.5458	757.52	752.46	747.32	742.12
x1 = 0.6009	755.29	750.18	745.03	739.81
x1 = 0.6459	753.48	748.37	743.18	737.93
x1 = 0.7014	751.36	746.23	741.01	735.74
x1 = 0.7449	749.75	744.6	739.36	734.07
x1 = 0.7986	747.76	742.58	737.33	732.01
x1 = 0.8504	745.92	740.74	735.47	730.13
x1 = 0.8978	744.27	739.05	733.78	728.43
x1 = 0.9091	743.88	738.66	733.39	728.04
x1 = 0.9184	743.53	738.33	733.04	727.69
x1 = 0.9259	743.26	738.07	732.78	727.43
x1 = 0.9379	742.81	737.6	732.32	726.97
x1 = 0.9473	742.48	737.28	732	726.65
x1 = 0.9598	742.06	736.83	731.56	726.21
x1 = 0.9706	741.68	736.46	731.17	725.82
x1 = 0.9791	741.36	736.13	730.85	725.49
x1 = 0.9881	741.04	735.82	730.53	725.18

— the NIST ThermoML archive (doi:10.1016/j.jct.2011.02.018)
